Data taken from US20250064941A1, “SIGLEC LIGANDS, CONJUGATES, AND METHODS OF USE THEREOF” (Osprey Biopharmaceuticals, Inc., priority 2023, published 2025).

Columns and labels:
[1] = target: T1, mouse Siglec-2-Fc-Avi (CD22) (Mus musculus, UniProt P35329); experiment: SPR binding affinity to mouse CD22; details: steady-state analysis
T1 construct: made in house
T1 sequence (P35329 22-708 limits assumed): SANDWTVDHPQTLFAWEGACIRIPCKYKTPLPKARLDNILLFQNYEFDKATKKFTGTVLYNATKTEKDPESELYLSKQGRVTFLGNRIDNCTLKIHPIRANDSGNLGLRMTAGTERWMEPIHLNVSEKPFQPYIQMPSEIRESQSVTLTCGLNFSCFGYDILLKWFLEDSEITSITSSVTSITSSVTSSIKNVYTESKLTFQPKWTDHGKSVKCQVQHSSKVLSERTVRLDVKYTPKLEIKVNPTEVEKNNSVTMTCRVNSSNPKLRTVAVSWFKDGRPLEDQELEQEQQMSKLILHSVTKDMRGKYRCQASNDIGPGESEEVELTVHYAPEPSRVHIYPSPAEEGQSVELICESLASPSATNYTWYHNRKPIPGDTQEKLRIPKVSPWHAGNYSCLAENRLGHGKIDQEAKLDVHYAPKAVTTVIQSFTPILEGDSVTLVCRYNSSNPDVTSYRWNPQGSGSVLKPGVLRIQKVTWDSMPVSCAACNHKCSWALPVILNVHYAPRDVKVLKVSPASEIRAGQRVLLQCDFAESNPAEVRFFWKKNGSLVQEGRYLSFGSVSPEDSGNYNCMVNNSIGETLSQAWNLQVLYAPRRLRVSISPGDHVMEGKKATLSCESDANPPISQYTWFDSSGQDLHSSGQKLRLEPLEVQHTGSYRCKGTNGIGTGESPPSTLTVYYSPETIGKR
Procedure, shortened: (§1)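 Steady-state fits gave the affinities. Before capture on a streptavidin surface, biotinylated CD22 had native sialic acids stripped (SialoExo, 4 hours, 37° C.). Running buffer: 10 mM HEPES pH 7.5, 150 mM NaCl, 0.05% Tween-20, 1% DMSO, with DMSO solvent correction.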

[2] = target: T2, human Siglec-2/CD22 protein (Homo sapiens, UniProt P20273); experiment: SPR binding affinity to human CD22; details: steady-state analysis
T2 construct: purchased Acro Biosystems SI2-H82E3
T2 sequence (P20273 20-847): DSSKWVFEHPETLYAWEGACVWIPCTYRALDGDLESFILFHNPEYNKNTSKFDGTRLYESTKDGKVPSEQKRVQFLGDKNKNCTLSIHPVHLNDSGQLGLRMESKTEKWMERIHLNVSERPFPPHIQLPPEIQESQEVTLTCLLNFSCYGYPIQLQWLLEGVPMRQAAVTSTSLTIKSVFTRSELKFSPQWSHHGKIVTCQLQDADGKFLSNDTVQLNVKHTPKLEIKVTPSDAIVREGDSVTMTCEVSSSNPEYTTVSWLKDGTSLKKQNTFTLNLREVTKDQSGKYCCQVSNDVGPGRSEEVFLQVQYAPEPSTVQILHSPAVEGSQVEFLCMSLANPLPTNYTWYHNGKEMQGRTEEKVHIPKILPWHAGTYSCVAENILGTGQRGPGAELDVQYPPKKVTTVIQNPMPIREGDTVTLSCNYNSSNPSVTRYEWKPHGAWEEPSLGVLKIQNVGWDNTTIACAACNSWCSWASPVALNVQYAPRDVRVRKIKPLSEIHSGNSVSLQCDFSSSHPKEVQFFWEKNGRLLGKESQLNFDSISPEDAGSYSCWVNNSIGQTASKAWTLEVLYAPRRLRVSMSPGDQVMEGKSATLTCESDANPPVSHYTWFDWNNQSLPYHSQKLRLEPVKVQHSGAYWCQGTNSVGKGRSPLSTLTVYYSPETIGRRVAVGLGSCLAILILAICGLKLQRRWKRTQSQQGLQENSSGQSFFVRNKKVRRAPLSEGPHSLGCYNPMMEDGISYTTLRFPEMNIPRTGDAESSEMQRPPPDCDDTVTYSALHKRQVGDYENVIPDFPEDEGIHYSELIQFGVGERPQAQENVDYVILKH
Procedure, shortened: as §1

cynomolgus Siglec-2/CD22 = cynomolgus Siglec-2/CD22 (Macaca fascicularis, UniProt A0A2K5WCZ6); experiment: biochemical; format: binding; details: SPR, steady-state analysis; read-out: Affinity cyno CD22
Experimental: Prior to immobilization, CD22 proteins were treated with SialoExo (Genovis, Cat #G1-SM1-020) for 4 hours at 37° C. to remove native sialic acid residues.
Surface preparation for cyno CD22 protein consisted of amine coupling to Cytiva CM5 chip (Cytiva, Cat #BR100530) using the Cytiva amine coupling kit Type 2 (Cytiva, Cat #BR100633). Following the standard amine coupling protocols, EDC and NHS from the kit were mixed 1:1 and injected over flow cells 1 and 2. […] Any active carboxy groups were then capped with 1M Ethanolamine, pH 8.5 for 420s on flow cells 1 and 2.
Binding experiments of Siglec-ligand conjugated proteins or Siglec ligand compounds were performed on the surfaces prepared above in 10 mM HEPES, 150 mM NaCl, 0.05% Tween-20, pH 7.5, 1% DMSO as the running buffer. […] The compounds were then allowed to dissociate from the surface for 120 seconds. […] Solvent correction was performed using 0.5, 1, 1.5, and 2% DMSO spike into running buffer without DMSO. […] Data was analyzed using steady-state analysis in Biacore Insight Evaluation Software, version 3.0 for Siglec ligand compounds.

cynomolgus Siglec-2/CD22, sequence (A0A2K5WCZ6 entry or part of it): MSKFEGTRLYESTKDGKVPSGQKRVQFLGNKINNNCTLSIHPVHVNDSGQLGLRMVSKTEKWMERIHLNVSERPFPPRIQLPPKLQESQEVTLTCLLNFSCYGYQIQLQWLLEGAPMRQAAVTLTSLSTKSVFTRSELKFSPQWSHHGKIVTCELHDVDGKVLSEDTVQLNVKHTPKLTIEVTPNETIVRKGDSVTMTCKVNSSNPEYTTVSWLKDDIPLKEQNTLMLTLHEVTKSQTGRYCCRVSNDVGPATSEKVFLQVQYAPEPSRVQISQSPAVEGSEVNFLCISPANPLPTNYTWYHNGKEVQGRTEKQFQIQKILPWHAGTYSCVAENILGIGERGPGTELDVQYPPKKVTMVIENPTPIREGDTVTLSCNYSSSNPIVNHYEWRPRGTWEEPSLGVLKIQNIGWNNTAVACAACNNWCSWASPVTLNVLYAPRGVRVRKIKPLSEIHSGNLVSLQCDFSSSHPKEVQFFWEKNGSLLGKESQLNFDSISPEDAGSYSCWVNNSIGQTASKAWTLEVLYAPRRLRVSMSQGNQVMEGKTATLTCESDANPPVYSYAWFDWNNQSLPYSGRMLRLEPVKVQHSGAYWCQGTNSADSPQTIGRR

| SMILES | Kd [1] [µM] | Kd [2] [µM] | Kd (cynomolgus Siglec-2/CD22) [µM] |
| --- | --- | --- | --- |
| C#CCOCCOCCO[C@]1(C(=O)O)C[C@H](O)[C@@H](NC(=O)CO)[C@H]([C@H](O)[C@H](O)CNC(=O)c2cccc(O)c2)O1 [Compound 29, (2R,4S,5R,6R)-6-((1R,2R)-1,2-dihydroxy-3-(3-hydroxybenzamido)propyl)-4-hydroxy-5-(2-hydroxyacetamido)-2-(2-(2-(prop-2-yn-1-yloxy)ethoxy)ethoxy)tetrahydro-2H-pyran-2-carboxylic acid] | > 10 | 1 to 10 | > 10 |
| C#CCOCCOCCO[C@]1(C(=O)O)C[C@H](O)[C@@H](NC(=O)CO)[C@H]([C@H](O)[C@H](O)CNC(=O)c2ccc(Cl)cc2)O1 [Compound 30, (2R,4S,5R,6R)-6-((1R,2R)-3-(4-chlorobenzamido)-1,2-dihydroxypropyl)-4-hydroxy-5-(2-hydroxyacetamido)-2-(2-(2-(prop-2-yn-1-yloxy)ethoxy)ethoxy)tetrahydro-2H-pyran-2-carboxylic acid] | > 10 | 1 to 10 | 1 to 10 |
| C#CCOCCOCCO[C@]1(C(=O)O)C[C@H](O)[C@@H](NC(=O)CO)[C@H]([C@@H](F)[C@H](O)CNC(=O)Cc2ccc(-c3ccccc3)cc2)O1 [Compound 32] | > 10 | > 10 | > 10 |
| C#CCOCCOCCO[C@]1(C(=O)O)C[C@H](O)[C@@H](NC(=O)CO)[C@H]([C@H](O)[C@H](O)CNC(=O)Cc2cccc(-c3ccccc3)c2)O1 [Compound 33, (2R,4S,5R,6R)-6-((1R,2R)-3-(2-([1,1′-biphenyl]-3-yl)acetamido)-1,2-dihydroxypropyl)-4-hydroxy-5-(2-hydroxyacetamido)-2-(2-(2-(prop-2-yn-1-yloxy)ethoxy)ethoxy)tetrahydro-2H-pyran-2-carboxylic acid] | > 10 | < 1 | 1 to 10 |
| C#CCOCCOCCO[C@@]1(C(=O)O)O[C@@H]([C@H](O)[C@H](O)CNC(=O)Cc2ccc(-c3ccccc3)cc2)[C@H](NC(=O)CO)[C@@H](NC(=O)c2cccc(OC)c2)[C@@H]1O [Compound 36, (2R,3S,4R,5R,6R)-6-((1R,2R)-3-(2-([1,1′-biphenyl]-4-yl)acetamido)-1,2-dihydroxypropyl)-3-hydroxy-5-(2-hydroxyacetamido)-4-(3-methoxybenzamido)-2-(2-(2-(prop-2-yn-1-yloxy)ethoxy)ethoxy)tetrahydro-2H-pyran-2-carboxylic acid] | 1 to 10 | < 1 | 1 to 10 |
| C#CCCOc1ccc(CO[C@]2(C(=O)O)C[C@H](O)[C@@H](NC(=O)CO)[C@H]([C@H](O)[C@H](O)CNC(=O)Cc3ccc(-c4ccccc4)cc3)O2)cc1 [Compound 37, (2R,4S,5R,6R)-6-((1R,2R)-3-(2-([1,1′-biphenyl]-4-yl)acetamido)-1,2-dihydroxypropyl)-2-((4-(but-3-yn-1-yloxy)benzyl)oxy)-4-hydroxy-5-(2-hydroxyacetamido)tetrahydro-2H-pyran-2-carboxylic acid] | < 1 | < 1 | < 1 |
| C#CCCOc1cccc(CO[C@]2(C(=O)O)C[C@H](O)[C@@H](NC(=O)CO)[C@H]([C@H](O)[C@H](O)CNC(=O)Cc3ccc(-c4ccccc4)cc3)O2)c1 [Compound 38, (2R,4S,5R,6R)-6-((1R,2R)-3-(2-([1,1′-biphenyl]-4-yl)acetamido)-1,2-dihydroxypropyl)-2-((3-(but-3-yn-1-yloxy)benzyl)oxy)-4-hydroxy-5-(2-hydroxyacetamido)tetrahydro-2H-pyran-2-carboxylic acid] | < 1 | < 1 | < 1 |
| C#CCCCCCCO[C@]1(C(=O)O)C[C@H](O)[C@@H](NC(=O)CO)[C@H]([C@H](O)[C@H](O)CNC(=O)c2cccc(Oc3ccccc3)c2)O1 [Compound 40, (2R,4S,5R,6R)-6-((1R,2R)-1,2-dihydroxy-3-(3-phenoxybenzamido)propyl)-4-hydroxy-5-(2-hydroxyacetamido)-2-(oct-7-yn-1-yloxy) tetrahydro-2H-pyran-2-carboxylic acid] | 1 to 10 | < 1 | < 1 |
| C#CCOCCOCCNc1c(NCCCCCCO[C@]2(C(=O)O)C[C@H](O)[C@@H](NC(=O)CO)[C@H]([C@H](O)[C@H](O)CNC(=O)C(F)(F)c3ccccc3)O2)c(=O)c1=O [Compound 41, (2R,4S,5R,6R)-6-((1R,2R)-3-(2,2-difluoro-2-phenylacetamido)-1,2-dihydroxypropyl)-2-((6-((3,4-dioxo-2-((2-(2-(prop-2-yn-1-yloxy)ethoxy)ethyl)amino)cyclobut-1-en-1-yl)amino)hexyl)oxy)-4-hydroxy-5-(2-hydroxyacetamido) tetrahydro-2H-pyran-2-carboxylic acid] | 1 to 10 | 1 to 10 | 1 to 10 |
| C#CCCCCCCO[C@]1(C(=O)O)C[C@H](O)[C@@H](NC(=O)CO)[C@H]([C@H](O)[C@H](O)CNC(=O)C(F)(F)c2ccccc2)O1 [Compound 42, (2R,4S,5R,6R)-6-((1R,2R)-3-(2,2-difluoro-2-phenylacetamido)-1,2-dihydroxypropyl)-4-hydroxy-5-(2-hydroxyacetamido)-2-(oct-7-yn-1-yloxy) tetrahydro-2H-pyran-2-carboxylic acid] | 1 to 10 | < 1 | < 1 |
| C#CCCOc1ccc(CO[C@]2(C(=O)O)C[C@H](O)[C@@H](NC(=O)CO)[C@H]([C@H](O)[C@H](O)CNC(=O)Cc3cccc(-c4ccc(O)cc4)c3)O2)cc1 [Compound 44, (2R,4S,5R,6R)-2-((4-(but-3-yn-1-yloxy)benzyl)oxy)-6-((1R,2R)-1,2-dihydroxy-3-(2-(4′-hydroxy-[1,1′-biphenyl]-3-yl)acetamido)propyl)-4-hydroxy-5-(2-hydroxyacetamido)tetrahydro-2H-pyran-2-carboxylic acid] | 1 to 10 | < 1 | 1 to 10 |
| C#CCCOc1ccc(CO[C@]2(C(=O)O)C[C@H](O)[C@@H](NC(=O)CO)[C@H]([C@H](O)[C@H](O)CNC(=O)Cc3cccc(-c4cccc(O)c4)c3)O2)cc1 [Compound 45, (2R,4S,5R,6R)-2-((4-(but-3-yn-1-yloxy)benzyl)oxy)-6-((1R,2R)-1,2-dihydroxy-3-(2-(3′-hydroxy-[1,1′-biphenyl]-3-yl)acetamido)propyl)-4-hydroxy-5-(2-hydroxyacetamido)tetrahydro-2H-pyran-2-carboxylic acid] | 1 to 10 | < 1 | 1 to 10 |
